Source: PubChem BioAssay AID1259334 (Broad Institute, 2017)
Active and inactive are the calls of the source. Cut-off read from the data, not from the text of the source: active = AC50 below about 11 µM. Numbered stars: 1 amine (or outer) side, 2 acyl side, 3 side chain; on linkers, the order of the positions; unused ones are H or OH. Bridge positions count the residues as written; N and C are the ends. Square brackets hold non-standard residues; d marks the D form. Peptide text beside a SMILES is read from it. I, II: the chains in the order shown. Actinocin(9to1) = Cc1c2oc3c(C)ccc(C(=O)[*:1])c3nc-2c(C(=O)[*:2])c(N)c1=O; NMeV = CN[CH](C(=O)O)C(C)C; Sar = CNCC(=O)O

Test system: B cell line, TNFa signaling counterscreen reporter
Test: TNFa pathway inhibition counter-screen, B-lineage cells – dose response (AID 1259334);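 note: cells stimulated with TNFa after compound preincubation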

Compound	AC50
Cc1c2oc3c(C)ccc(C(=O)OC(C)C4NC(=O)C(C(C)C)N(C)C(=O)CN(C)C(=O)C5CCCN5C(=O)C(C(C)C)NC4=O)c3nc-2c(C(=O)OC(C)C2NC(=O)C(C(C)C)N(C)C(=O)CN(C)C(=O)C3CCCN3C(=O)C(C(C)C)NC2=O)c(N)c1=O (stereo not drawn) (I: cyclo([Sar][NMeV]TVP) / II: cyclo([Sar][NMeV]TVP); linker I:3-II:3 via Actinocin(9to1); configuration not given here)	5.19 nM
Cc1cc(C)nc(Sc2ncnc(N)c2[N+](=O)[O-])n1	2530 nM
C[C@H](CO)N1C[C@H](C)[C@H](CN(C)S(=O)(=O)c2ccc([N+](=O)[O-])cc2)OCc2ccccc2-c2c(n(C)c3ccccc23)C1=O	9880 nM
COc1ccc(CN(CCC(c2ccccc2)c2ccc(OC(C)C)cc2)C(=O)CCl)cc1OC (stereo not drawn)	1460 nM
O=S(=O)(/C(=C\c1ccc(C(F)(F)F)cc1)c1nc2ccccc2[nH]1)c1ccccc1	497 nM
COc1ccc(/C=C\c2nc(=O)c3ccccc3o2)cc1	9730 nM
C[C@@H]1CN([C@@H](C)CO)C(=O)c2c(c3ccccc3n2C)-c2ccccc2CO[C@@H]1CN(C)C(=O)c1cc(Cl)cc(Cl)c1	> 20000 nM (inactive)
N#C[C@H]1N[C@H](CO)[C@H]1c1ccc(C#CC2CCCC2)cc1	8010 nM
CC1(C)C(=O)C=C[C@@]2(C)C1C(=O)C(=O)[C@]1(C)C2CC[C@@]2(C)[C@H](c3ccoc3)C[C@H]3O[C@]321 (stereo partly drawn)	1740 nM
O=C(Nc1ccc(C(F)(F)F)cc1)Nc1ccc2c(c1)[C@H]1C[C@@H](CC(=O)N3CCc4ccccc4C3)O[C@H](CO)[C@H]1O2	10700 nM
O=C(/C=C/c1cccs1)c1ccc(N2CCOCC2)cc1	3870 nM
Cc1csc(NC(=O)c2ccc(N3CCCC3=O)cc2)n1	3750 nM
Cc1ccc(S(=O)(=O)CCC(=O)N(CCCN2CCOCC2)c2nc3ccccc3s2)cc1	7380 nM
CC(C)Cc1ccc(C(C)CC2=CCC(CN(C)C)C2=O)cc1 (stereo not drawn)	2410 nM
COc1ccc(CC2C(=O)NC(C)C(=O)N(C)C3Cc4ccc(cc4)Oc4cc(ccc4O)CC(C(=O)NC(C)C(=O)NC(C)C(=O)N2C)N(C)C3=O)cc1 (stereo not drawn)	4.64 nM
COc1ccc(/C=C2/CCC(CN3CCOCC3)C2=O)cc1 (stereo not drawn)	2690 nM
CCN1C(=O)C(CC(=O)Nc2ccc(F)cc2)N(Cc2ccco2)C1=S (stereo not drawn)	> 20000 nM (inactive)
C[C@@H]1CN([C@@H](C)CO)S(=O)(=O)c2ccc(C#Cc3ccccc3F)cc2O[C@H]1CN(C)C(=O)Cc1cccnc1	> 20000 nM (inactive)
CC[C@H]1CN2CCc3cc(OC)c(OC)cc3C2C[C@@H]1CC1NCCc2cc(OC)c(OC)cc21 (stereo partly drawn)	11 nM
O=c1cc(-c2ccc(O)cc2)oc2ccc3ccccc3c12	1670 nM
O=S(c1ccccc1O)S(=O)c1ccccc1O (stereo not drawn)	> 20000 nM (inactive)
COc1cccc(-c2cc(=O)c3cc(OC)ccc3o2)c1	3070 nM

Compound	AC50
CCCNC(=O)N1[C@H](C#N)[C@H](c2ccc(C#Cc3cccc(F)c3)cc2)[C@H]1CO	8920 nM
NC(c1ccccc1)c1csc(NC(=O)Nc2cccc(C(F)(F)F)c2)n1 (stereo not drawn)	3070 nM
CC1CC(C)(O)CC(C(O)CC2CC(=O)NC(=O)C2)C1=O (stereo not drawn)	89.9 nM
Cc1cc(C(=O)COC(=O)CNC(=O)c2ccccc2)c(C)n1CC1CCCO1 (stereo not drawn)	5610 nM
CCC(=O)NC(c1ccccc1OC)c1ccc2cccnc2c1O (stereo not drawn)	9460 nM
O=C(C1CC1)N1C[C@@H]2N[C@H](C1)C2c1ccc(-c2cccc(F)c2)cc1 (stereo partly drawn)	5960 nM
COC(=O)C12OCC34C(CC5C(C)=C(O)C(=O)CC5(C)C3C(O)C1O)OC(=O)C(OC(=O)C=C(C)C)C24 (stereo not drawn)	671 nM
C[C@@H]1CN([C@@H](C)CO)C(=O)c2c(c3ccccc3n2C)-c2ccccc2CO[C@H]1CN(C)Cc1cccc(C(F)(F)F)c1	6020 nM
CCCn1c(NC(=O)c2cccc(S(=O)(=O)N3CCCC3)c2)nc2ccccc21	2610 nM
C[C@@H]1O[C@@H](O[C@H]2C[C@@H](O)[C@]3(CO)[C@H]4[C@H](O)C[C@]5(C)[C@@H](C6COC(=O)C6)CC[C@]5(O)[C@@H]4CC[C@]3(O)C2)[C@H](O)[C@H](O)[C@H]1O (stereo partly drawn)	2760 nM
CC(C)C1CC(N(C)C)=CC(=S)N1 (stereo not drawn)	10700 nM
COC(=O)C[C@](O)(CCCC(C)(C)O)C(=O)O[C@@H]1C(OC)=C[C@]23CCCN2CCc2cc4c(cc2[C@H]13)OCO4	< 4.6 nM
CC(C)CC#Cc1ccc([C@@H]2[C@H]3CN(C(=O)Nc4ccccc4)CCCCN3[C@H]2CO)cc1	6520 nM
COc1ccc(CC2C(=O)NC(C)C(=O)N(C)C3C(=O)N(C)C(Cc4ccc(O)c(c4)Oc4ccc(cc4)C3O)C(=O)NC(C)C(=O)NC(C)C(=O)N2C)cc1 (stereo not drawn)	13.3 nM
C1CCC(C(CC2CCCCN2)C2CCCCC2)CC1 (stereo not drawn)	2750 nM
O=C1CC(=O)OC(c2ccc([N+](=O)[O-])cc2)O1	1090 nM
O=C1CC(c2ccc3c(c2)OCO3)Sc2nc3ccccc3n21 (stereo not drawn)	3830 nM
CCOc1ccc(OCc2cccc(C(=O)N3CCOCC3)c2)cc1	2840 nM
CC(C)(C)CC(C)(C)c1ccc(OCCOCC[N+](C)(C)Cc2ccccc2)cc1	1750 nM
CC(=NNc1ccc2ccccc2n1)c1ccccc1O	1520 nM
COc1cccc(/C=N/Nc2ccc(C(=O)O)cc2)c1O	2020 nM
